Laboratory results reported in patent US20260014147A1, “STAT6 DEGRADERS” (Gilead Sciences, Inc., priority 2024, published 2026).

The compounds below were run against T1, STAT6 (endogenous, HiBiT-tagged) in HeLa LgBiT clone 4.14 cells (Homo sapiens, UniProt P42226) (assay: STAT6 Degrader Assay (HiBiT based, HeLa LgBiT clone 4.14 cells, luminescence, DC50)). Conditions: DC50 provided for test compounds with >80% Emax, geometric mean, read-out: STAT6 degradation DC50.
T1 construct: These cells express endogenous STAT6; host or cells: HeLa LgBiT clone 4.14
T1 sequence (P42226 1-847): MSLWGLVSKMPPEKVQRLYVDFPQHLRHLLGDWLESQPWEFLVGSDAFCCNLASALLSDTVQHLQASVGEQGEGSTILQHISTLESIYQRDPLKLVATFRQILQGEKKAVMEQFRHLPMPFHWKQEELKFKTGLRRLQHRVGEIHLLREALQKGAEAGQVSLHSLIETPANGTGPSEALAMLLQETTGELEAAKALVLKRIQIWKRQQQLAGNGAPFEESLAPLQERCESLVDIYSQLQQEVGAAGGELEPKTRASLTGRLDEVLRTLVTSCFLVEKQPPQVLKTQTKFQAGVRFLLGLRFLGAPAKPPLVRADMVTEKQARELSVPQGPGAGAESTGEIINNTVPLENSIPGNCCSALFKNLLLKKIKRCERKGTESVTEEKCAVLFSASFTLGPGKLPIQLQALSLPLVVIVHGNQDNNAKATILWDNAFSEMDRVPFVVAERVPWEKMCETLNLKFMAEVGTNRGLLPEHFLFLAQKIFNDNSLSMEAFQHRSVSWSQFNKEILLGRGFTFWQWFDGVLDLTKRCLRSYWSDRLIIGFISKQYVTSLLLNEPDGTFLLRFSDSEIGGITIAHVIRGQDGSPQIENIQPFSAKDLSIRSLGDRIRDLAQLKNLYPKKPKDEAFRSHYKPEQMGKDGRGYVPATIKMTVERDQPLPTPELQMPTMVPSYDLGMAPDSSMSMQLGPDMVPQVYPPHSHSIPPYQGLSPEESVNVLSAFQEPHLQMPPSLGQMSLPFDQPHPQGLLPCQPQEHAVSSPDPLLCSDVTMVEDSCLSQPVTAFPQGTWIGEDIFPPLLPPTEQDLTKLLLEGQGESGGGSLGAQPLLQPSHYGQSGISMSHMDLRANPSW
Format: cell-based
Procedure: This was a HiBit based assay. A HeLa cell line stably transfected with a small protein, LgBit (Large Bit) was obtained from Promega. These cells express endogenous STAT6. A small 11 amino acid gene sequence (HiBiT) was inserted in the STAT6 gene using CRISPR technology. Once STAT6 protein is expressed in the cells, the HiBiT sequence will bind the LgBit in the cells resulting in a functional NanoBiT protein, giving a luminescent tag to STAT6. Single cell clones were prepared and the clone 4.14 was selected for the assay based on that clone showing high luminescence, high STAT6 phosphorylation upon stimulation with IL-4, and inhibition of luminescence when cells were treated with STAT6 siRNA. HeLa LgBiT clone 4.14 cells were suspended in DMEM with 10% FCS, 1% Pen/Strep, Na-pyrovate and Hygromycin B, at a concentration of […]. 5000 cells were added pr well of a 384 well plate and 20 nL of compound was added by Echo® liquid handler. NN6394A (terfenadine, a toxic compound) was added to control wells at 50 µM concentration to establish the assay window. In these wells the cells are dead which equals 100% degradation of STAT6. After 4-24 h of incubation at 37° C. under 5% CO2/95% air, […] substrate (Nano-GLO®) was added to the wells and the plates were centrifuged and incubated for 0.5 h. The luminescence in the wells as a measure of non-degraded STAT6 was measured in a plate reader (BMG Pherastar FSX). The dose-response curves for Examples 2a2, 2t1, 2 h3, and 2r1 are shown below (where percent degradation is plotted vs. test compound concentration in M on a log-scale).

Point of comparison: `COC(C)c1nc2cc(-c3ccnc4c3cc([C@H](C)N3CCC(c5ccc(C(=O)N6CCC(CN7CCN(c8ccc(NC9CCC(=O)NC9=O)cc8F)CC7)CC6)cc5)CC3)n4C)ccc2[nH]1` (stereo in doubt) [Example 2c21, 3-((3-fluoro-4-(4-((1-(4-(1-((S)-1-(4-(2-((R)-1-methoxyethyl)-1H-benzo[d]imidazol-5-yl)-1-methyl-1H-pyrrolo[2,3-b]pyridin-2-yl)ethyl)piperidin-4-yl)benzoyl)piperidin-4-yl)methyl)piperazin-1-yl)phenyl)amino)piperidine-2,6-dione], DC50 4.4 nM. Against it:
- CNc1ccc(-c2ccnc3c2cc([C@H](C)N2CCC(c4ccc(C(=O)N5CCn6nc(CN7CCC(c8ccc(NC9CCC(=O)NC9=O)cc8F)CC7)cc6C5)cc4)CC2)n3C)cn1 (mixture of isomers) [Example 2c41, 3-((3-fluoro-4-(1-((5-(4-(1-((S)-1-(1-methyl-4-(6-(methylamino)pyridin-3-yl)-1H-pyrrolo[2,3-b]pyridin-2-yl)ethyl)piperidin-4-yl)benzoyl)-4,5,6,7-tetrahydropyrazolo[1,5-a]pyrazin-2-yl)methyl)piperidin-4-yl)phenyl)amino)piperidine-2,6-dione] — within 1.5-fold, 3.3 nM
- Cn1c(CN2CCC(c3ccc(C(=O)N4CCC(CN5CCN(c6ccc(NC7CCC(=O)NC7=O)cc6F)CC5)CC4)cc3)CC2)cc2c(-c3ccc4[nH]ncc4c3)ccnc21 (single isomer, unassigned) [Example 2c6] — 5.1-fold higher, 22.5 nM
- CC(c1cc2c(-c3ccc(N)nc3)ccnc2n1C)N1CCC(c2ccc(C(=O)N3CCC(CN4CCN(c5ccc(N[C@H]6CCC(=O)NC6=O)cc5F)CC4)CC3)cc2)CC1 (single isomer, unassigned) [Example 2c11] — 2.5-fold higher, 11.2 nM
- CC(c1cc2c(-c3ccc(N)nc3)ccnc2n1C)N1CCC(c2ccc(C(=O)N3CCC(CN4CCN(c5ccc(N[C@@H]6CCC(=O)NC6=O)cc5F)CC4)CC3)cc2)CC1 (single isomer, unassigned) [Example 2c12] — 4-fold higher, 17.7 nM
- CNc1ccc(-c2ccnc3c2cc([C@H](C)N2CCC(c4ccc(C(=O)N5CCn6nc(CN7CCC(c8ccc(N[C@H]9CCC(=O)NC9=O)cc8F)CC7)cc6C5)cc4)CC2)n3C)cn1 (single isomer, unassigned) [Example 2c42] — within 1.5-fold, 5.4 nM
- CNc1ccc(-c2ccnc3c2cc([C@H](C)N2CCC(c4ccc(C(=O)N5CCn6nc(CN7CCC(c8ccc(N[C@@H]9CCC(=O)NC9=O)cc8F)CC7)cc6C5)cc4)CC2)n3C)cn1 (single isomer, unassigned) [Example 2c43] — 2.8-fold lower, 1.6 nM
- Cn1c(CN2CCC(c3ccc(C(=O)N4CCC(CN5CCN(c6ccc(NC7CCC(=O)NC7=O)cc6)CC5)CC4)cc3)CC2)cc2c(-c3ccc4[nH]ncc4c3)ccnc21 (centres unmarked) [Example 2b1, 3-((4-(4-((1-(4-(1-((4-(1H-indazol-5-yl)-1-methyl-1H-pyrrolo[2,3-b]pyridin-2-yl)methyl)piperidin-4-yl)benzoyl)piperidin-4-yl)methyl)piperazin-1-yl)phenyl)amino)piperidine-2,6-dione] — 4.4-fold higher, 19.2 nM
- CC(c1cc2c(-c3ccc(N)nc3)ccnc2n1C)N1CCC(c2ccc(C(=O)N3CCC(CN4CCN(c5ccc(NC6CCC(=O)NC6=O)cc5F)CC4)CC3)cc2)CC1 (centres unmarked) [Example 2c10, 3-((4-(4-((1-(4-(1-(1-(4-(6-aminopyridin-3-yl)-1-methyl-1H-pyrrolo[2,3-b]pyridin-2-yl)-ethyl)-piperidin-4-yl)benzoyl)piperidin-4-yl)methyl)piperazin-1-yl)-3-fluorophenyl)amino)piperidine-2,6-dione] — 3.2-fold higher, 14.1 nM

Same assay, conditions: Emax provided for test compounds with <80% Emax (and 2c15), geometric mean, read-out: STAT6 degradation Emax

`Cn1c(CN2CCC(c3ccc(C(=O)N4CCC(CN5CCN(c6ccc(N[C@H]7CCC(=O)NC7=O)cc6F)CC5)CC4)cc3)CC2)cc2c(-c3ccc4[nH]ncc4c3)ccnc21` (single isomer, unassigned) [Example 2c5] and `Cn1c(CN2CCC(c3ccc(C(=O)N4CCC(CN5CCN(c6ccc(NC7CCC(=O)NC7=O)c(F)c6)CC5)CC4)cc3)CC2)cc2c(-c3ccc4[nH]ncc4c3)ccnc21` (centres unmarked) [Example 2b2, 3-((4-(4-((1-(4-(1-((4-(1H-indazol-5-yl)-1-methyl-1H-pyrrolo[2,3-b]pyridin-2-yl)methyl)piperidin-4-yl)benzoyl)piperidin-4-yl)methyl)piperazin-1-yl)-2-fluorophenyl)amino)piperidine-2,6-dione] fall in the same range of Emax: 70 to 80% for the first, 70 to 80% for the second.

`COCc1nc2cc(-c3ccnc4c3cc(CN3CCC(c5ccc(C(=O)N6CCC(CN7CCN(c8ccc(NC9CCC(=O)NC9=O)c(F)c8)CC7)CC6)cc5)CC3)n4C)ccc2[nH]1` (centres unmarked) [Example 2b3, 3-((2-fluoro-4-(4-((1-(4-(1-((4-(2-(methoxymethyl)-1H-benzo[d]imidazol-5-yl)-1-methyl-1H-pyrrolo[2,3-b]pyridin-2-yl)methyl)piperidin-4-yl)benzoyl)piperidin-4-yl)methyl)piperazin-1-yl)phenyl)amino)piperidine-2,6-dione] and `COCc1nc2cc(-c3ccnc4c3cc(CN3CCC(c5ccc(C(=O)N6CCC(CN7CCN(c8ccc(NC9CCC(=O)NC9=O)cc8F)CC7)CC6)cc5)CC3)n4C)ccc2[nH]1` (centres unmarked) [Example 2c4, 3-((3-fluoro-4-(4-((1-(4-(1-((4-(2-(methoxymethyl)-1H-benzo[d]imidazol-5-yl)-1-methyl-1H-pyrrolo[2,3-b]pyridin-2-yl)methyl)piperidin-4-yl)benzoyl)piperidin-4-yl)methyl)piperazin-1-yl)phenyl)-amino)piperidine-2,6-dione] fall in the same range of Emax: 70 to 80% for the first, 70 to 80% for the second.

First: Cn1c(CN2CCC(c3ccc(C(=O)N4CCC(CN5CCN(c6ccc(NC7CCC(=O)NC7=O)cc6F)CC5)CC4)cc3)CC2)cc2c(-c3ccc(N)nc3)ccnc21 (centres unmarked) [Example 2c2, 3-((4-(4-((1-(4-(1-((4-(6-aminopyridin-3-yl)-1-methyl-1H-pyrrolo[2,3-b]pyridin-2-yl)methyl)-piperidin-4-yl)benzoyl)piperidin-4-yl)methyl)piperazin-1-yl)-3-fluorophenyl)amino)piperidine-2,6-dione]
Second: Cc1nc(N)ccc1-c1ccnc2c1cc(CN1CCC(c3ccc(C(=O)N4CCC(CN5CCN(c6ccc(NC7CCC(=O)NC7=O)cc6F)CC5)CC4)cc3)CC1)n2C (centres unmarked) [Example 2c7, 3-((4-(4-((1-(4-(1-((4-(6-amino-2-methylpyridin-3-yl)-1-methyl-1H-pyrrolo[2,3-b]pyridin-2-yl)methyl)piperidin-4-yl)benzoyl)piperidin-4-yl)methyl)piperazin-1-yl)-3-fluorophenyl)amino)piperidine-2,6-dione]
The Emax of the first is higher: 50 to 60% for the first, 30 to 40% for the second.

First: Cc1cc(C(=O)N2CCC(CN3CCN(c4ccc(NC5CCC(=O)NC5=O)cc4F)CC3)CC2)ccc1C1=CCN(Cc2cc3c(-c4ccc(N)nc4)ccnc3n2C)CC1 (centres unmarked) [Example 2c9, 3-((4-(4-((1-(4-(1-((4-(6-aminopyridin-3-yl)-1-methyl-1H-pyrrolo[2,3-b]pyridin-2-yl)methyl)-1,2,3,6-tetrahydropyridin-4-yl)-3-methylbenzoyl)piperidin-4-yl)methyl)piperazin-1-yl)-3-fluorophenyl)-amino)piperidine-2,6-dione]
Second: C[C@H](c1cc2c(-c3ccc(N)nc3)ccnc2n1C)N1CCC(c2ccc(C(=O)N3CCC(CN4CCN(c5ccc(NC6CCC(=O)NC6=O)cc5F)CC4)CC3)cc2)CC1 (stereo partly drawn) [Example 2c13, 3-((4-(4-((1-(4-(1-((R)-1-(4-(6-aminopyridin-3-yl)-1-methyl-1H-pyrrolo[2,3-b]pyridin-2-yl)ethyl)-piperidin-4-yl)benzoyl)piperidin-4-yl)methyl)piperazin-1-yl)-3-fluorophenyl)amino)piperidine-2,6-dione]
The Emax of the first is higher: 50 to 60% for the first, under 20% for the second.
